Source: patent publication US7691838B2, “Method for treating diseases using HSP90-inhibiting agents in combination with antimitotics” (Kosan Biosciences Incorporated, priority 2003, dated 2010)
Read-outs that look alike come from different tables or passages of the source.

Columns and labels:
[1] = on administration; background statement; cited from earlier work
[2] = clinical trials, cited from earlier work
breast cancer cells = details: cited from earlier work
[3] = system: ErbB2-expressing cancer cells; details: ErbB2-expressing cancer cells in vitro; Citri et al. 2002; cited from earlier work
[4] = system: DLD-1 cells (human colorectal cancer cells); experiment: MTS cell viability drug combination assay, combination index, DLD-1; format: cell-based; details: CI<1 synergism
Description: (§1) Human colon adenocarcinoma cell line, DLD-1, and human breast adenocarcinoma cell line, SKBr-3, were obtained from American Type Culture Collection (manassas, Va.). DLD-1 cells were maintained in RPMI 1640 medium supplemented with 10% fetal bovine serum, and SKBr-3 cells were cultured in McCoy's 5a medium supplemented with 10% fetal bovine serum. 17-DMAG and 17-AAG were obtained using published procedures. Other cytotoxic agents were purchased commercially from suppliers such as Sigma Chemical Co. (St. Louis, Mo.) and Sequoia Research Products (Oxford, UK).
(§2) Cells were seeded in duplicate in 96-well microtiter plates at a density of 5,000 cells per well and allowed to attach overnight. Cells were treated with 17-AAG or 17-DMAG and the corresponding antimitotic at varying concentrations, ranging from 0.5 picomolar (“pM”) to 50 micromolar (“μM”), for 3 days. Cell viability was determined using the MTS assay (Promega). For the drug combination assay, cells were seeded in duplicate in 96-well plates (5,000 cells/well). […] Based on the IC50 values of each individual drug, combined drug treatment was designed at constant ratios of two drugs, i.e., equivalent to the ratio of their IC50. Two treatment schedules were used: In one schedule, the cells were exposed to 24 hours of 17-AAG or 17-DMAG. The drug was then added to the cells and incubated for 48 hours. In another schedule, cells were exposed to the drug alone for 24 hours followed by addition of 17-AAG or 17-DMAG for 48 hours. Cell viability was determined by the MTS assay.
(§3) Synergism, additivity or antagonism was determined by median effect analysis using the combination index (CI) calculated using Calcusyn (Biosoft, Cambridge, UK). The combination index is defined as follows: CI=[D]1/[Dx]1+[D]2/[Dx]2
(§4) The quantities [D]1 and [D]2 represent the concentrations of the first and second drug, respectively, that in combination provide a response of x % in the assay. The quantities [Dx]1 and [Dx]2 represent the concentrations of the first and second drug, respectively, that when used alone provide a response of x % in the assay. Values of CI<1, CI=1, and CI>1 indicated drug-drug synergism, additivity, and antagonism respectively (Chou and Talalay 1984). The “enhancing” effect of two drugs can also be determined.
“Pre-administration” refers to the administration of 17-AAG to the cells before the administration of antimitotic; “post-administration” refers to the administration of 17-AAG to the cells after the administration of antimitotic.

[5] = system: SKBr-3 cells (human breast cancer cells); experiment: MTS cell viability drug combination assay, combination index, SKBr-3; format: cell-based; details: CI<1 synergism
Description: as §1, §2, §3, §4

[6] = 17-AAG Post-Administration (antimitotic 24 h, then 17-AAG 48 h)
[7] = 17-AAG Pre-Administration (17-AAG 24 h, then antimitotic 48 h)

Row | Structure (SMILES) | CI value (combination index) of antimitotic with 17-AAG [4, 6] | CI value (combination index) of antimitotic with 17-AAG [4, 7] | CI value (combination index) of antimitotic with 17-AAG [5, 6] | CI value (combination index) of antimitotic with 17-AAG [5, 7] | other results
1 | C=CCNC1=C2C[C@@H](C)C[C@H](OC)[C@H](O)[C@@H](C)/C=C(\C)[C@H](OC(N)=O)[C@@H](OC)/C=C\C=C(/C)C(=O)NC(=CC1=O)C2=O [17-AAG, 17-allylamino-17-desmethoxygeldanamycin] | – | – | – | – | hepatotoxicity [1]: reduced hepatotoxicity; MTD (maximum tolerated dose) ([2]; daily×5 schedule): about 40 mg/m^2; MTD (maximum tolerated dose) ([2]; once-weekly regimen): about 308 mg/m^2; MTD (maximum tolerated dose) ([2]; twice-weekly regimen): about 220 mg/m^2; sensitization of cells to cytotoxic effects of other drugs (breast cancer cells; cells in culture, Münster et al. 2001): sensitizes cells in culture to the cytotoxic effects of Paclitaxel and doxorubicin
2 | C=CC(=O)Nc1cc2c(Nc3ccc(F)c(Cl)c3)ncnc2cc1OCCCN1CCOCC1 [CI-1033] | – | – | – | – | combination effect on growth, with anti-ErB2 antibody Herceptin [3]: antagonistic effect
3 | CC(=O)O[C@@]12CO[C@@H]1C[C@H](O)[C@@]1(C)C(=O)[C@H](O)C3=C(C)[C@@H](OC(=O)[C@H](O)[C@@H](NC(=O)OC(C)(C)C)c4ccccc4)C[C@@](O)([C@@H](OC(=O)c4ccccc4)[C@H]21)C3(C)C [Docetaxel, docetaxel] | 0.29 ± 0.12 | 0.79 ± 0.15 | 0.59 ± 0.26 | 0.53 ± 0.11 | –
4 | C/C1=C/C[C@@H](/C(C)=C/c2csc(C)n2)OC(=O)C[C@H](O)C(C)(C)C(=O)[C@H](C)[C@@H](O)[C@@H](C)CCC1 [Epothilone D, epothilone D] | 0.61 ± 0.12 | 0.84 ± 0.06 | 0.58 ± 0.009 | 0.72 ± 0.07 | –
5 | CC[C@]1(O)C[C@@H]2CN(CCc3c([nH]c4ccccc34)[C@@](C(=O)OC)(c3cc4c(cc3OC)N(C)[C@H]3[C@@](O)(C(=O)OC)[C@H](OC(C)=O)[C@]5(CC)C=CCN6CC[C@]43[C@@H]65)C2)C1 [Vinblastine, vinblastine] | 0.38 ± 0.11 | 0.92 ± 0.3 | 0.68 ± 0.41 | 0.39 ± 0.03 | –
6 | CC[C@]1(O)C[C@H]2CN(CCc3c([nH]c4ccccc34)[C@@](C(=O)OC)(c3cc4c(cc3OC)N(C=O)[C@H]3[C@@](O)(C(=O)OC)[C@H](OC(C)=O)[C@]5(CC)C=CCN6CC[C@]43[C@@H]65)C2)C1 [Vincristine, vincristine] | 0.42 ± 0.08 | 0.96 ± 0.3 | 0.99 ± 0.73 | 0.67 ± 0.37 | –
7 | CC[C@]1(O)C[C@@H]2CN(CCc3c([nH]c4ccccc34)[C@@](C(=O)OC)(c3cc4c(cc3OC)N(C)[C@H]3[C@@](O)(C(N)=O)[C@H](O)[C@]5(CC)C=CCN6CC[C@]43[C@@H]65)C2)C1 [Vindesine, vindesine] | 0.68 ± 0.08 | 0.91 ± 0.41 | – | – | –
8 | COC1=C2C[C@@H](C)C[C@H](OC)[C@H](O)[C@@H](C)/C=C(\C)[C@H](OC(N)=O)[C@@H](OC)/C=C\C=C(/C)C(=O)NC(=CC1=O)C2=O [geldanamycin, Geldanamycin] | – | – | – | – | hepatotoxicity [1]: unacceptable hepatotoxicity; combination effect on growth, co-administration with CI-1033 [3]: additive effect
9 | CC(=O)O[C@H]1C(=O)[C@@]2(C)[C@H]([C@H](OC(=O)c3ccccc3)[C@]3(O)C[C@H](OC(=O)[C@H](O)[C@@H](NC(=O)c4ccccc4)c4ccccc4)C(C)=C1C3(C)C)[C@]1(OC(C)=O)CO[C@@H]1C[C@@H]2O [paclitaxel] | – | – | – | – | apoptosis, combination with 17-AAG (breast cancer cells; coincident treatment with paclitaxel and 17-AAG, retinoblastoma protein-producing cells): synergistic apoptosis; apoptosis, combination with 17-AAG (breast cancer cells; paclitaxel followed by 17-AAG 4 hours later): synergistic effect similar to coincident treatment; apoptosis, combination with 17-AAG (breast cancer cells; pretreatment with 17-AAG followed by paclitaxel): abrogation of apoptosis
